From US20100190768A1, “NOVEL FUSED PYROLE DERIVATIVE” (Dainippon Sumitomo Pharma Co., Ltd., priority 2005, published 2010)
Read-outs that look alike come from different tables or passages of the source.

Columns and labels:
[1] = target: T1, human GRα protein (Homo sapiens, UniProt P04150); experiment: Binding inhibitory assay (displacement of 3H-dexamethasone from the cytoplasm fraction of baculovirus-infected insect cells); conditions: for inhibition at 0.1 µM: read-out: Binding Inhibitory ratio (%) of 100 nM of test compound
T1 construct: made in house; host or cells: insect cells infected with baculovirus; cytoplasm fraction used
T1 sequence (P04150 1-777): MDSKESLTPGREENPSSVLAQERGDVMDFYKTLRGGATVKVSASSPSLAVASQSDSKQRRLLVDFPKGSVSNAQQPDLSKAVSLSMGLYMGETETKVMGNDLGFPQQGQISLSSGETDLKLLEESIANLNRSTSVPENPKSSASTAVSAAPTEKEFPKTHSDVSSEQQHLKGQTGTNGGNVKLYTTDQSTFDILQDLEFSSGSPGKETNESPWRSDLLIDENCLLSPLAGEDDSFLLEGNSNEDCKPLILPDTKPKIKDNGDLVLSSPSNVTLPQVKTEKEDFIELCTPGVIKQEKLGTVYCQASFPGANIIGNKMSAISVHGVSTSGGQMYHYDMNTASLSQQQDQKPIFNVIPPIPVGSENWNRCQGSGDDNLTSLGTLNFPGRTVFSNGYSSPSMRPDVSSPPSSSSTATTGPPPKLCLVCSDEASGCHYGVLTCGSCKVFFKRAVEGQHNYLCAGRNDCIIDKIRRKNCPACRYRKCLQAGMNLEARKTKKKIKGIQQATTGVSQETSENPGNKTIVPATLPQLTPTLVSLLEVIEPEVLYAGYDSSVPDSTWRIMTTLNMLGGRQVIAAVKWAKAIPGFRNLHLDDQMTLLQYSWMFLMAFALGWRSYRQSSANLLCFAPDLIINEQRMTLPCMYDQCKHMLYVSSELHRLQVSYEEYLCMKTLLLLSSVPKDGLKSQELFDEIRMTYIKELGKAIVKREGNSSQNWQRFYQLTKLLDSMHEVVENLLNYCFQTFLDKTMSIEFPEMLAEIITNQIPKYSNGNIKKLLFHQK
Description: Insect cells, which had been infected with baculovirus for expressing human GRα protein, were suspended in an approximately equal volume of a binding buffer (10 mM Tris-Cl, 1.5 mM EDTA, 10% glycerol, 5 mM DTT, 20 mM sodium molybdate, pH 7.6). The mixture was rapidly frozen with liquid nitrogen, and then melted at room temperature. This cycle was repeated totally twice in order to break the cell membrane. The mixture was ultracentrifuged under 100,000 g at 4° C. for one hour to give the supernatant, which was the cytoplasm fraction containing human GRα protein.
A polypropylene 96-well plate (manufactured by Costar Corporation, etc.) was placed on ice, and DMSO or a test compound (each 1 μl) was put into each well. A 10 nM ^3H-Dex solution (50 μl; tritiated dexamethasone; manufactured by Amersham) in the binding buffer, and a GR protein solution, i.e., a solution by diluting the above cytoplasm fraction with the binding buffer (50 μl) were added to each well, and the plate was lightly shaken with a plate mixer, and then left to stand at 4° C. for 16 to 20 hours (the final concentration of DMSO: 1%).
A 5% solution of dextran-coated active carbon (manufactured by Sigma) suspended in the binding buffer (50 μl) was put into each well, and the plate was lightly shaken with a plate mixer for 30 seconds. Then, the plate was centrifuged at 2500 rpm at 4° C. for 5 minutes, and the ^3H count in the supernatant (50 μl) was measured by a TopCount (manufactured by Perkin-Elmer Corporation). Each test compound was tested twice.
The binding activity was calculated as follows. The mean ^3H count in the presence of dexamethason (Dex) 10 μM was considered as NSB (non-specific binding), and the binding inhibitory ratio in each well was calculated by the following equation.
Binding Inhibitory Ratio (%)=100×{1−(cpm value of each well−NSB)/(mean cpm value of DMSO-well−NSB)}
(cpm means count per minute)
The mean binding inhibitory ratio of each well was calculated by the above equation to give a binding inhibitory ratio of each test compound.

[2] = system: H4-III-E cells; experiment: TAT (tyrosine aminotransferase) assay; type: cell-based; conditions: for activation at 10 µM / Agonistic activity of 10 μM test compound: 10 μM test compound alone, relative to maximum Dex-induced TAT activity (100%); for activation at 10 µM: read-out: Agonistic activity of 10 μM test compound; for Antagonistic activity of 10 μM test compound: 10 μM test compound together with 0.005 μM dexamethasone, inhibitory ratio against TAT activity increase by Dex
Description: H4-III-E cells, which had been continuously cultured in α-MEM medium A (supplemented with 10% inactivated FBS, 50 μM 2-mercapto-ethanol), were suspended in α-MEM medium A or α-MEM medium B (supplemented with 10% inactivated FBS, 50 μM 2-mercapto-ethanol, but without phenol red), and the cell suspension was seeded to a 96-well plate in an amount of 2×10^4 cells/100 μl/well, and the cells were cultured overnight. The supernatant in the medium was removed, and a test compound (100 μl, diluted with α-MEM medium A or α-MEM medium B) was added, and the cells were further cultured overnight. In order to measure the agonistic activity, a test compound was added alone, while in order to measure the antagonistic activity, a test compound was added simultaneously together with 0.005 μM dexamethasone and evaluated the extent of the inhibitory effect of said test compound against the TAT activity-inducing activity by dexamethasone.
The culture supernatant in the plate was removed by suction, and a cell lysate (20 μL; 1% NP-40, 0.2% Triton X-100, 0.25% DOC, 0.1% SDS, 1 mM EGTA, 150 mM NaCl, Tris (pH7.4), Protease inhibitor cocktail [2.5 mg/ml aprotinin, 2.5 mg/ml leupeptin, 2.5 mg/ml soybean trypsin inhibitor]) was added, and further thereto was added a TAT reaction reagent (150 μL; 10 N KOH, 0.125 M KH2PO4, 0.5 M α-ketoglutarate, 5 mM Pyridoxal-5′ phosphate, L-tyrosine), and the mixture was reacted at 37° C. for 15 minutes. Further, a 10N KOH (20 μL) was added thereto, and the mixture was reacted at 37° C. for 30 minutes, and the absorbance at 331 nm was measured by a microplate reader (SPECTRA MAX 250).
From the mean absorbance in the wells to which a test compound was added, the mean absorbance in the wells to which a compound and a TAT reaction solution were not added was subtracted.
Agonistic activity (%)=100×[(absorbance of the drug-treated group)−(absorbance of the group without TAT reaction reagent)]/[(absorbance of Dex-treated group)−(absorbance of the group without TAT reaction reagent)]
On the other hand, the antagonistic activity was calculated as follows.
Antagonistic activity (%)=Inhibitory ratio (%) against TAT activity increase by Dex=100−100×[(absorbance of the drug-treated group)−(absorbance of the group without a drug)]/[(absorbance of Dex-treated group)−(absorbance of the group without a drug)]
With regard to the agonistic activity and the antagonistic activity, the results of 10% or more were expressed as O, while the results of less than 10% were expressed as X.

[3] = 100 nM test compound, 3H-Dex, NSB with 10 μM dexamethasone

inhibition at 0.1 µM [1, 3] [%]	SMILES	activation at 10 µM [2] [%]	Antagonistic activity of 10 μM test compound [2]	inhibition at 0.1 µM [1] [%]	Binding Inhibitory ratio (%) of test compound (1 μM) ([1]; 1 μM test compound, 3H-Dex, NSB with 10 μM dexamethasone) [%]	Agonistic activity of 10 μM test compound [2]
92	O=[N+]([O-])c1ccc2c(C(O)(CN3CCCCC3)C(F)(F)F)cn(Cc3ccccc3)c2c1 (centres unmarked) [Example 1, 2-(1-Benzyl-6-nitro-1H-indol-3-yl)-1,1,1-trifluoro-3-piperidin-1-ylpropan-2-ol]	< 10	◯	–	–	–
98	C=CCC(O)(c1cn(Cc2ccccc2)c2cc([N+](=O)[O-])ccc12)C(F)(F)F (centres unmarked) [Example 8, 2-(1-Benzyl-6-nitro-1H-indol-3-yl)-1,1,1-trifluoropent-4-en-2-ol]	< 10	◯	–	–	–
96	O=[N+]([O-])c1ccc2c(C(O)(CN3CCN(c4ccccc4)CC3)C(F)(F)F)cn(Cc3ccccc3)c2c1 (centres unmarked) [Example 75, 2-(1-Benzyl-6-nitro-1H-indol-3-yl)-1,1,1-trifluoro-3-(4-phenylpiperazin-1-yl)propan-2-ol]	–	◯	–	–	◯
60	O=[N+]([O-])c1ccc2c(C(O)(CN3CCC(O)(Cc4ccccc4)CC3)C(F)(F)F)cn(Cc3ccccc3)c2c1 (centres unmarked) [Example 76, 4-Benzyl-1-[2-(1-benzyl-6-nitro-1H-indol-3-yl)-3,3,3-trifluoro-2-hydroxypropyl]-piperidin-4-ol]	< 10	◯	–	–	–
92	O=[N+]([O-])c1ccc2c(C(O)(CN3CCC(Oc4ccc(F)cc4)CC3)C(F)(F)F)cn(Cc3ccccc3)c2c1 (centres unmarked) [Example 77, 2-(1-Benzyl-6-nitro-1H-indol-3-yl)-1,1,1-trifluoro-3-[4-(4-fluorophenoxy)-piperidin-1-yl]propan-2-ol]	–	◯	–	–	◯
81	O=[N+]([O-])c1ccc2c(C(O)(CN3CCC(O)CC3)C(F)(F)F)cn(Cc3ccccc3)c2c1 (centres unmarked) [Example 78, 1-[2-(1-Benzyl-6-nitro-1H-indol-3-yl)-3,3,3-trifluoro-2-hydroxypropyl]piperidin-4-ol]	–	◯	–	–	◯
101	CC(C)(C)OC(=O)N1CCN(CC(O)(c2cn(Cc3ccccc3)c3cc([N+](=O)[O-])ccc23)C(F)(F)F)CC1 (centres unmarked) [Example 100, tert-Butyl 4-[2-(1-benzyl-6-nitro-1H-indol-3-yl)-3,3,3-trifluoro-2-hydroxypropyl]-piperazine-1-carboxylate]	–	◯	–	–	◯
101	O=C(c1cccs1)N1CCN(CC(O)(c2cn(Cc3ccccc3)c3cc([N+](=O)[O-])ccc23)C(F)(F)F)CC1 (centres unmarked) [Example 106, 2-(1-Benzyl-6-nitro-1H-indol-3-yl)-1,1,1-trifluoro-3-[4-(2-thienylcarbonyl)-piperazin-1-yl]propan-2-ol]	–	◯	–	–	◯

Continued, compound first:

SMILES	inhibition at 0.1 µM [1, 3] [%]	activation at 10 µM [2] [%]	Antagonistic activity of 10 μM test compound [2]	inhibition at 0.1 µM [1] [%]	Binding Inhibitory ratio (%) of test compound (1 μM) ([1]; 1 μM test compound, 3H-Dex, NSB with 10 μM dexamethasone) [%]	Agonistic activity of 10 μM test compound [2]
CCOC(=O)C(O)(c1cn(Cc2ccccc2)c2cc([N+](=O)[O-])ccc12)C(F)(F)F (centres unmarked) [Example 2, Ethyl 2-(1-benzyl-6-nitro-1H-indol-3-yl)-3,3,3-trifluoro-2-hydroxypropanoate]	–	< 10	◯	87	–	–
CCOC(=O)C(O)(c1cn(Cc2ccccc2)c2c([N+](=O)[O-])cccc12)C(F)(F)F (centres unmarked) [Example 21, Ethyl 2-(1-benzyl-7-nitro-1H-indol-3-yl)-3,3,3-trifluoro-2-hydroxypropanoate]	–	< 10	◯	–	79	–
Cc1ccccc1C(=O)CC(O)(c1cn(Cc2ccccc2)c2cc([N+](=O)[O-])ccc12)C(F)(F)F (centres unmarked) [Example 68, 3-(1-Benzyl-6-nitro-1H-indol-3-yl)-4,4,4-trifluoro-3-hydroxy-1-(2-methylphenyl)-butan-1-one]	79	< 10	◯	–	–	–
COc1ccc(C(=O)C2CCN(CC(O)(c3cn(Cc4ccccc4)c4cc([N+](=O)[O-])ccc34)C(F)(F)F)CC2)cc1 (centres unmarked) [Example 73, {1-[2-(1-Benzyl-6-nitro-1H-indol-3-yl)-3,3,3-trifluoro-2-hydroxypropyl]piperidin-4-yl}(4-methoxyphenyl)methanone]	95	–	◯	–	–	◯
CN(C(=O)C1CCN(CC(O)(c2cn(Cc3ccccc3)c3cc([N+](=O)[O-])ccc23)C(F)(F)F)CC1)c1ccccc1 (centres unmarked) [Example 95, 1-[2-(1-Benzyl-6-nitro-1H-indol-3-yl)-3,3,3-trifluoro-2-hydroxypropyl]-N-methyl-N-phenylpiperidine-4-carboxamide]	59	< 10	◯	–	–	–
O=[N+]([O-])c1ccc2c(C(O)(CNCCc3ccccc3)C(F)(F)F)cn(Cc3ccccc3)c2c1 (centres unmarked) [Example 157, 2-(1-Benzyl-6-nitro-1H-indol-3-yl)-1,1,1-trifluoro-3-[(2-phenylethyl)amino]-propan-2-ol]	50	–	–	–	–	–
CCOC(=O)CCc1ccc(C(=O)C2CCN(CC(O)(c3cn(Cc4ccccc4)c4cc([N+](=O)[O-])ccc34)C(F)(F)F)CC2)cc1 (centres unmarked) [Example 229, Ethyl 3-[4-({1-[2-(1-benzyl-6-nitro-1H-indol-3-yl)-3,3,3-trifluoro-2-hydroxypropyl]piperidin-4-yl}carbonyl)phenyl]propanoate]	74	–	–	–	–	–
